# Counter-ions that a name gives are not always drawn.
# Biological target: PDE4B (Homo sapiens, UniProt Q07343)
# Assay: Scintillation Proximity (SPA) assay, inhibition of PDE4B at 1 μM
# Format: biochemical
# Settings: test substance 1 μM, one hour incubation with [H3]-cAMP at 30° C.
# Experimental: The inhibitions (in %) at 1 μM of the individual Example substances are included in the following Tables of Examples and were determined as follows:
# The Scintilation Proximity (SPA) Assays (GE Healthcare, No. TRKQ7090) make use of the different affinities of cyclic 3″-5″-adenosine monophosphate (cAMP, low affinity) and linear 5′-adenosine monophosphate (AMP, high affinity) for yttrium silicate scintillator beads. The cAMP specific phosphodiesterase (PDE) PDE4B cleaves the 3′-phosphoester bond of the tritium-labelled [H3]-cAMP to form the [H3]-5′-AMP. Because of its higher affinity for the scintillator beads this [H3]-AMP accumulates on the beads and causes scintillation events (flashes of light) which are measured in a Wallac Microbeta Scintillation Counter.
# The test starts with one hour's incubation of [H3]-cAMP with the PDE4B enzyme in assay buffer at 30° C., once with the Example substance that is to be tested (in a concentration of 1 μM) and once without the Example substance that is to be tested. After this incubation the reaction is stopped by the addition of the beads. The beads are given an opportunity to settle over the next 45 minutes, then they are measured in the Scintillation Counter. If the substance is capable of inhibiting the enzymatic activity of the PDE4B, less [H3]-AMP is formed during the incubation phase and fewer scintillation events can be measured.
# PDE4B, sequence (Q07343 whole entry, species assumed): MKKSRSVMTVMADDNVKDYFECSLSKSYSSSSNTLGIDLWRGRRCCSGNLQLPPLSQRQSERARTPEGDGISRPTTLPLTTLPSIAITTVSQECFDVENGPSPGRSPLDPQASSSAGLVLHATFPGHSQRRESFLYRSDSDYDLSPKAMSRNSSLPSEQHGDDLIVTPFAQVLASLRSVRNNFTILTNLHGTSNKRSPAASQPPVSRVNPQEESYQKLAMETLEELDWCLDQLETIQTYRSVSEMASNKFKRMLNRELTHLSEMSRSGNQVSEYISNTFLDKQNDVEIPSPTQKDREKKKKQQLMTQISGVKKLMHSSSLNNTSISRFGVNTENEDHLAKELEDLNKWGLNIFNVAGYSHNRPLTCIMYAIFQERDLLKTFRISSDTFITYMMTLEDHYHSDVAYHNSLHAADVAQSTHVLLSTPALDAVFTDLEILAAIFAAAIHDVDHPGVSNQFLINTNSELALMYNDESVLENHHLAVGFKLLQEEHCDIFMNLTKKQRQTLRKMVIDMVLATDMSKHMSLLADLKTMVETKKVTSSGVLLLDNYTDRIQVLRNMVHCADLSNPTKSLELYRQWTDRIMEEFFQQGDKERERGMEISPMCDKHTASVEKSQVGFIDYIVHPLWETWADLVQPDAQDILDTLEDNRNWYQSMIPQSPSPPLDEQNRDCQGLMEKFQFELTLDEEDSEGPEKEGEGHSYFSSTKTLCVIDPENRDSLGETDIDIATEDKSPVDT
SMILES,inhibition at 1 µM (Table A),inhibition at 1 µM (Table C),also measured
[O-][S+]1CCc2nc(N3CC4CC3CN4c3cccc(F)c3)nc(NC3(CO)CC3)c21 (stereo not drawn) [Example 23],93%,,
O=C1CN(c2nc3c(c(NC4(CO)CC4)n2)[S+]([O-])CC3)CCN1c1ccc(Br)cc1 (stereo not drawn) [Example 11],90%,,
CC(C)[C@H](CO)Nc1nc(N2CCN(c3ccc(Cl)cc3)C[C@@H]2C)nc2c1[S+]([O-])CC2 (stereo partly drawn) [Example 2],94%,,
Cc1nn(C)c(C)c1CNC(=O)c1cn2c(n1)CN(c1nc3c(c(NC4CCOCC4)n1)[S+]([O-])CC3)CC2 (stereo not drawn) [Example 51],,,inhibition at 1 µM (Table D): 94%
CC(C)[C@H](CO)Nc1nc(N2CCn3c(nnc3-c3ccc(F)cc3)C2)nc2c1[S+]([O-])CC2 (stereo partly drawn) [Example 43],,88%,
O=C1CN(c2nc3c(c(NC4(CO)CC4)n2)[S+]([O-])CC3)CCN1c1cccc(Br)c1 (stereo not drawn) [Example 13],19%,,
[O-][S+]1CCc2nc(N3CCn4c(Cc5ccc(Cl)c(Cl)c5)nnc4C3)nc(NC3(CO)CC3)c21 (stereo not drawn) [Example 32],,91%,
Cc1cn(C)nc1CN(C)C(=O)c1cn2c(n1)CN(c1nc3c(c(NC4CCOCC4)n1)[S+]([O-])CC3)CC2 (stereo not drawn) [Example 56],,,inhibition at 1 µM (Table D): 94%

# Continued, in another order:
inhibition at 1 µM (Table A),inhibition at 1 µM (Table C),SMILES,also measured
,90%,"[O-][S+]1CCc2nc(N3CCn4cnnc4C3)nc(Nc3cccc(F)c3)c21 (stereo not drawn) [Example 41, [2-(5,6-DIHYDRO-8H-[1,2,4]TRIAZOLO[4,3-A]PYRAZIN-7-YL)-5-OXO-6,7-DIHYDRO-5H-5λ^4-THIENO[3,2-D]PYRIMIDIN-4-YL]-(3-FLUOROPHENYL)-AMINE TRIFLUOROACETATE]",
,95%,CCOC(=O)c1cn2c(n1)CN(c1nc3c(c(NC4CCOCC4)n1)[S+]([O-])CC3)CC2 (stereo not drawn) [Example 34],
95%,,[O-][S+]1CCc2nc(N3CC4CC3CN4c3ccc(Br)cc3)nc(NC3CCOCC3)c21 (stereo not drawn) [Example 20],
95%,,C[C@H]1CN(c2ccc(Cl)cc2)CCN1c1nc2c(c(NC3CCOCC3)n1)[S+]([O-])CC2 (stereo partly drawn) [Example 4],

# From patent US8486948B2, “Piperazinodihydrothienopyrimidine derivatives” (Boehringer Ingelheim International GmbH, priority 2007, dated 2013)
